The values that follow come from publication PMC5578373, “Inhibitory Kappa B Kinase α (IKKα) Inhibitors That Recapitulate Their Selectivity in Cells against Isoform-Related Biomarkers” (Journal of Medicinal Chemistry, 2017).

The subject of test [1] is IKKβ-dependent p65 (Ser536) phosphorylation in U2OS cells. Kind of test: TNFα-induced p65 (Ser536) phosphorylation in U2OS cells, Western blot. It is filed as cell-based, human. The note with it: highest concentration 100 μM, TNF-α (10 ng/mL) 30 min. As to the method: (§1) Two IKKβ-dependent readouts were selected to assess selectivity over IKKβ. First, TNFα stimulates IκBα degradation through activation of IKKβ and if IKKβ is inhibited, then a band corresponding to the IκBα protein should be evident by Western analysis. Second, IKKβ phosphorylates p65 on Ser536, which can also be assessed by Western blot analysis. Only at the highest concentration (100 μM) of 48 was IκBα degradation and p65 (Ser536) phosphorylation inhibited (Figure 9b). Even at this high concentration, these effects were not apparent following pretreatment with 47 (Figure 10b).
(§2) Figure 9 Effect of compound 48 on (a) FCS-stimulated noncanonical and (b) TNF-α-induced canonical NF-kB activation in U2OS cells. […] Whole cell lysate were prepared, separated by SDS-PAGE, and assessed for (a) inhibition of p100 phosphorylation (Ser866/870) and (b) IkB-α and p-p65 (Ser536) status. […]
(§3) Figure 10 Effect of compound 47 on (a) FCS-stimulated noncanonical and (b) TNF-α-induced canonical NF-kB activation in U2OS cells. […] Whole cell lysate were prepared, separated by SDS-PAGE, and assessed for (a) inhibition of p100 phosphorylation (Ser866/870) and (b) IkB-α and p-p65 (Ser536) status. […]
(§4) Whole cell lysates were prepared from U2OS and status of IκBα, p65, p-p65 (Ser536), and p-p100 (Ser 866/870) assessed by Western blotting as described in Mackenzie et al. (2007).[46]
A general note: A western blot detects proteins with antibodies after separation by electrophoresis.

The subject of test [2] is IKKβ-dependent IκBα degradation in U2OS cells. The experiment in a line: TNFα-induced IκBα degradation in U2OS cells, Western blot. It is filed as cell-based, human. The settings on record: highest concentration 100 μM, TNF-α (10 ng/mL) 30 min. As to the method:
as §1, §2, §3, §4

For another test, the target named is T1, CaMKIV(h) (Homo sapiens, UniProt Q16566).
T1 construct: purchased Millipore KinaseProfiler
Kind of test: Millipore Kinase Profiler, single concentration. It is filed as biochemical. The note with it: duplicate assay points, read-out: % residual activity. The text has this:
(§5) Kinase profiling of compound 48 was outsourced to Millipore, specifically the Kinase Profiler Customer Service for single concentration studies using duplicate assay points.

A further test has as its target T2, TrkB(h) (Homo sapiens, UniProt Q16620).
T2 construct: purchased Millipore KinaseProfiler
The experiment in a line: Millipore Kinase Profiler, single concentration. The format is biochemical. The note with it: duplicate assay points, read-out: % residual activity.
Description: as §5

The target in another test is T3, c-RAF(h) (Homo sapiens, UniProt P04049).
T3 construct: purchased Millipore KinaseProfiler
The experiment in a line: Millipore Kinase Profiler, single concentration. The format is biochemical. The note with it: duplicate assay points, read-out: % residual activity.
Description: as §5

The target of the next test is T4, PDGFRβ(h) (Homo sapiens, UniProt P09619).
T4 construct: purchased Millipore KinaseProfiler
Kind of test: Millipore Kinase Profiler, single concentration. It is filed as biochemical. The settings on record: duplicate assay points, read-out: % residual activity.
Description: as §5

A further test addresses T5, ZAP-70(h) (Homo sapiens, UniProt P43403).
T5 construct: purchased Millipore KinaseProfiler
The experiment in a line: Millipore Kinase Profiler, single concentration. It is filed as biochemical. The settings on record: duplicate assay points, read-out: % residual activity.
Description: as §5

A further test has as its target T6, JAK2(h) (Homo sapiens, UniProt O60674).
T6 construct: purchased Millipore KinaseProfiler
The experiment in a line: Millipore Kinase Profiler, single concentration. The format is biochemical. The settings on record: duplicate assay points, read-out: % residual activity.
Description: as §5

For another test, the target named is T7, EGFR(h) (Homo sapiens, UniProt P00533).
T7 construct: purchased Millipore KinaseProfiler
Kind of test: Millipore Kinase Profiler, single concentration. The format is biochemical. The note with it: duplicate assay points, read-out: % residual activity.
Description: as §5

The target of a further test is T8, CK1δ(h) (Homo sapiens, UniProt P48730).
T8 construct: purchased Millipore KinaseProfiler
The experiment in a line: Millipore Kinase Profiler, single concentration. The format is biochemical. The note with it: duplicate assay points, read-out: % residual activity.
Description: as §5

For another test, the target named is T9, CHK2(h) (Homo sapiens, UniProt O96017).
T9 construct: purchased Millipore KinaseProfiler
Kind of test: Millipore Kinase Profiler, single concentration. It is filed as biochemical. The note with it: duplicate assay points, read-out: % residual activity.
Description: as §5

Another test concerns the target T10, PKD2(h) (Homo sapiens, UniProt Q9BZL6).
T10 construct: purchased Millipore KinaseProfiler
Kind of test: Millipore Kinase Profiler, single concentration. It is filed as biochemical. The note with it: duplicate assay points, read-out: % residual activity.
Description: as §5

A further test has as its target T11, PRK2(h) (Homo sapiens, UniProt Q16513).
T11 construct: purchased Millipore KinaseProfiler
Kind of test: Millipore Kinase Profiler, single concentration. It is filed as biochemical. The note with it: duplicate assay points, read-out: % residual activity.
Description: as §5

In the next test the target is T12, DAPK1(h) (Homo sapiens, UniProt P53355).
T12 construct: purchased Millipore KinaseProfiler
Kind of test: Millipore Kinase Profiler, single concentration. The format is biochemical. The note with it: duplicate assay points, read-out: % residual activity.
Description: as §5

The next test addresses T13, CaMKI(h) (Homo sapiens, UniProt Q14012).
T13 construct: purchased Millipore KinaseProfiler
Kind of test: Millipore Kinase Profiler, single concentration. It is filed as biochemical. The settings on record: duplicate assay points, read-out: % residual activity.
Description: as §5

In the next test the target is T14, PKCα(h) (Homo sapiens, UniProt P17252).
T14 construct: purchased Millipore KinaseProfiler
Kind of test: Millipore Kinase Profiler, single concentration. It is filed as biochemical. The note with it: duplicate assay points, read-out: % residual activity.
Description: as §5

A further test concerns the target T15, LIMK1(h) (Homo sapiens, UniProt P53667).
T15 construct: purchased Millipore KinaseProfiler
Kind of test: Millipore Kinase Profiler, single concentration. The format is biochemical. The settings on record: duplicate assay points, read-out: % residual activity.
Description: as §5

Test [3] concerns IKKα-driven p100 phosphorylation in U2OS cells. The experiment in a line: FCS-stimulated p100 phosphorylation (Ser866/870) in U2OS cells, Western blot. It is filed as cell-based, human. The settings on record: 1 h pretreatment, FCS (10%) for 4 h, blots quantified, read-out: IC50 for inhibition of p100 phosphorylation. As to the method:
as §1
Figure 9 Effect of compound 48 on (a) FCS-stimulated noncanonical and (b) TNF-α-induced canonical NF-kB activation in U2OS cells. Cells were pretreated with 48 1 h prior to stimulation with FCS (10%) for 4 h or TNF-α (10 ng/mL) for 30 min. Whole cell lysate were prepared, separated by SDS-PAGE, and assessed for (a) inhibition of p100 phosphorylation (Ser866/870) and (b) IkB-α and p-p65 (Ser536) status. […] The results are representative of three independent experiments.
Figure 10 Effect of compound 47 on (a) FCS-stimulated noncanonical and (b) TNF-α-induced canonical NF-kB activation in U2OS cells. Cells were pretreated with 47 1 h prior to stimulation with FCS (10%) for 4 h or TNF-α (10 ng/mL) for 30 min. Whole cell lysate were prepared, separated by SDS-PAGE, and assessed for (a) inhibition of p100 phosphorylation (Ser866/870) and (b) IkB-α and p-p65 (Ser536) status. […] The results are representative of three independent experiments.
(§6) U2OS cells were cultured with McCoy’s 5A modified medium and MEF were cultured with DEME medium containing 10% (v/v) FCS and medium was changed every 2 d thereafter until cells became confluent. Cells were incubated at 37 °C in humidified air with 5% CO2 and rendered quiescent by serum deprivation for 24 h prior to stimulation in serum-free medium.
as §4

For test [4], the system named is IKKα-regulated NF-κB transcriptional activation in IKKβ−/− MEFs. The experiment in a line: IL-1β-stimulated NF-κB-luciferase transcriptional activity in IKKβ knockout MEFs. The format is cell-based, mouse. The settings on record: maximal concentrations of 50–100 μM. On the procedure:
To provide further evidence for cellular activity, mouse embryonic fibroblasts lacking the IKKβ kinase subunit were utilized to investigate the potency of both compounds against agonist-stimulated IKKα-regulated NF-κB transcriptional activation. Cells were infected with an adenovirus encoding an NF-κB-luciferase promoter gene. NF-κB transcriptional activity driven by IKKα was stimulated specifically using IL-1β,[41] and the ability of the compounds to inhibit this response was assessed. […] As IKKα plays a lesser role in the canonical NF-κB cascade,[42] particularly the rapid and transient stimulated degradation of IκBα, selective IKKα inhibitors should not affect TNF-α induced IκBα degradation and p65 phosphorylation.
as §6
An adenoviral vector encoding NFκB-luciferase (Adv.NFκB-Luc) was purchased from Vector Biolabs (University of Pennsylvania, Philadelphia, US). Large-scale production of high titer recombinant adenovirus was performed by routine methods.[47] IKKβ knockout mouse embryonic fibroblasts (MEFs; kindly provided by Prof. I. Verma, UCSD, USA) were counted when approximately 60–70% confluent in T75 cm^2 flasks and infected with adenovirus up to 300 pfu/cell^–1 for 24 h in 10% DMEM. Cells were then lifted from the flasks and plated into 96-well clear bottom, black luciferase plates and allowed to settle for 24 h before serum starved overnight. Cells were then stimulated with the appropriate agonists for the indicated times and reactions terminated by addition of lysis buffer containing 0.2 mM luciferin substrate. Relative light units (RLU) were measured using a Trilux microbeta counter (luminometer).

“Also recorded” adds a separate entry of the source. Read-outs that look alike come from different tables or passages of the source.

The term IC50 denotes the midpoint of a concentration-inhibition curve.

T11 sequence (Q16513 whole entry): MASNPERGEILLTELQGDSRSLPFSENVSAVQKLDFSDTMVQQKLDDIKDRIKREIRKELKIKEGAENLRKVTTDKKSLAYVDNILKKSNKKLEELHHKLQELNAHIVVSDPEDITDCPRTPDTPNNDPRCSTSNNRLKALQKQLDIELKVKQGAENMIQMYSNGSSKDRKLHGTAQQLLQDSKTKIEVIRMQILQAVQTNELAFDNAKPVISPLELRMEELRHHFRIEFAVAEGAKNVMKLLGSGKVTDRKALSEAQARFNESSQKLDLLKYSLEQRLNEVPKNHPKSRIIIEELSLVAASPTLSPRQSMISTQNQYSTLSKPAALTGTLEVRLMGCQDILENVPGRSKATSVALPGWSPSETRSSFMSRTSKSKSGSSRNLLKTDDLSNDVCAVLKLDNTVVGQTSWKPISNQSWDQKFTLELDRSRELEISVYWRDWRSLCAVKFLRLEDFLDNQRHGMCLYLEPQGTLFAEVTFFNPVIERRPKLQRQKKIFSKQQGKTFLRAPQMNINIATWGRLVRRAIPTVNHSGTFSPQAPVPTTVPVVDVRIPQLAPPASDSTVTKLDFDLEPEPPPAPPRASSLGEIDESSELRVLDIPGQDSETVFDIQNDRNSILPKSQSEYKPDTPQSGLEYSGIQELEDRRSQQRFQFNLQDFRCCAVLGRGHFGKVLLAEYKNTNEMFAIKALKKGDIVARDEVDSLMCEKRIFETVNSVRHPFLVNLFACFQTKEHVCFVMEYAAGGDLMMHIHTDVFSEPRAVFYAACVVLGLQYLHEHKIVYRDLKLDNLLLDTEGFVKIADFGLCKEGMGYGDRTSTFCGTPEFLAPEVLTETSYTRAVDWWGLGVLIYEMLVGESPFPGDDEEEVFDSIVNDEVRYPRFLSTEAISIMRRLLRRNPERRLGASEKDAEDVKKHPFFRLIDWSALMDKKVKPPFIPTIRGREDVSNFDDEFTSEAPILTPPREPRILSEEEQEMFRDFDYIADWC
T4 sequence (P09619 33-1106): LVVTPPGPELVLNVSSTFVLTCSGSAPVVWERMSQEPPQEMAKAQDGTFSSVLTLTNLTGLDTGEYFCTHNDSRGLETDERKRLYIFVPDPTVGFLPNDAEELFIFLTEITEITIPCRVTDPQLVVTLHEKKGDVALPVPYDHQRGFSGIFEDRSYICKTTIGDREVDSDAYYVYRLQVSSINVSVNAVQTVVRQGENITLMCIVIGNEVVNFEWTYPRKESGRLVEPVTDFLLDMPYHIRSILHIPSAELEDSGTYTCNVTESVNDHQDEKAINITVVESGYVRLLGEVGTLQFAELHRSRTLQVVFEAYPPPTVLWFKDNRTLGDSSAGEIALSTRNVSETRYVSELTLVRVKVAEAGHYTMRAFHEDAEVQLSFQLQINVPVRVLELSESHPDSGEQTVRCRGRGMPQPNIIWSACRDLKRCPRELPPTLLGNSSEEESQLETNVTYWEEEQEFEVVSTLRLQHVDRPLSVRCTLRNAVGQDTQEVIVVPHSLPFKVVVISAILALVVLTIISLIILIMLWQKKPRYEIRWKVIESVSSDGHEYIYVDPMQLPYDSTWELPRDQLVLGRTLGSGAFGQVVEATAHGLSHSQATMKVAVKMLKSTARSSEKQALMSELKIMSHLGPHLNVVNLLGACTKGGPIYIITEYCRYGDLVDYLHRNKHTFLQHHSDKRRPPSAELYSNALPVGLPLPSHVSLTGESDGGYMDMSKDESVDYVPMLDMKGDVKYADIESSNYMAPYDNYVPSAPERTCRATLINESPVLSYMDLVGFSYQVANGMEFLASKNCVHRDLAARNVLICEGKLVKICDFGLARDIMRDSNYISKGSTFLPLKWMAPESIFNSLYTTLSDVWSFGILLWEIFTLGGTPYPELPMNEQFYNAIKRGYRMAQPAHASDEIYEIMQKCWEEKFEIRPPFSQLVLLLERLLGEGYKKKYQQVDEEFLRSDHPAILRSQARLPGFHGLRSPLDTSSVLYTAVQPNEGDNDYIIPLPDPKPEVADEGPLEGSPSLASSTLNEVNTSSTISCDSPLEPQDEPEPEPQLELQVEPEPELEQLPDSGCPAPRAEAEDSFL
T9 sequence (O96017 whole entry): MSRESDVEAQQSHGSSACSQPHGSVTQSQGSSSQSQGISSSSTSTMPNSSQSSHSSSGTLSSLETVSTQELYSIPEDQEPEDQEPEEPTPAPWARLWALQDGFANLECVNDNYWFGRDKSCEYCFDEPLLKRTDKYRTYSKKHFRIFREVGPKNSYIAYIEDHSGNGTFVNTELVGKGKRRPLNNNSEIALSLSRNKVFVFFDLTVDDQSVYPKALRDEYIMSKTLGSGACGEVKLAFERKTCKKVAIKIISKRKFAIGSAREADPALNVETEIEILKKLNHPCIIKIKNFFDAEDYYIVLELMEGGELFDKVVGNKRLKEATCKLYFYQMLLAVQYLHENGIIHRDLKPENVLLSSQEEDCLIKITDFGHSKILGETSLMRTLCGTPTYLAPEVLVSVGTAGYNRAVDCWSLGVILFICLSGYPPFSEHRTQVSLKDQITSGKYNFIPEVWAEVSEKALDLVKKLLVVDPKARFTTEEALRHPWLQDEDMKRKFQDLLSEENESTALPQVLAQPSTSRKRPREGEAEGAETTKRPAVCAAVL
T3 sequence (P04049 whole entry): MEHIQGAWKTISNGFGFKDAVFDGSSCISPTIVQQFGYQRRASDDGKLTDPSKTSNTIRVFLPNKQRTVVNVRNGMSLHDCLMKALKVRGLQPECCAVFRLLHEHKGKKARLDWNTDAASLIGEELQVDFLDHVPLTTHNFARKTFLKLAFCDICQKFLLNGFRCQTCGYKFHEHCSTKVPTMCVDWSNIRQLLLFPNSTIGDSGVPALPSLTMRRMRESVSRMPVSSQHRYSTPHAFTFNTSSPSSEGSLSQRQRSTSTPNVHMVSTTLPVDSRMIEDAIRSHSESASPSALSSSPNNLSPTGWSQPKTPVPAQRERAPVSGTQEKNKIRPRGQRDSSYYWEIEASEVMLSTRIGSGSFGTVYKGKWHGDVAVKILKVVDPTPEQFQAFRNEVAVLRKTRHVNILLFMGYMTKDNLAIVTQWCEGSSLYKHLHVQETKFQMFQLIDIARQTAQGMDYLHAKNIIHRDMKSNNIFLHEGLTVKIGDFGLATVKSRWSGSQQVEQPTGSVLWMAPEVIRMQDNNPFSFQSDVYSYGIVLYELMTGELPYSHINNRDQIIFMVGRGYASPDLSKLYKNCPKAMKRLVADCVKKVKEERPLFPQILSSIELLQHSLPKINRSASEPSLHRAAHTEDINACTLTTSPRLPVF
T8 sequence (P48730 whole entry): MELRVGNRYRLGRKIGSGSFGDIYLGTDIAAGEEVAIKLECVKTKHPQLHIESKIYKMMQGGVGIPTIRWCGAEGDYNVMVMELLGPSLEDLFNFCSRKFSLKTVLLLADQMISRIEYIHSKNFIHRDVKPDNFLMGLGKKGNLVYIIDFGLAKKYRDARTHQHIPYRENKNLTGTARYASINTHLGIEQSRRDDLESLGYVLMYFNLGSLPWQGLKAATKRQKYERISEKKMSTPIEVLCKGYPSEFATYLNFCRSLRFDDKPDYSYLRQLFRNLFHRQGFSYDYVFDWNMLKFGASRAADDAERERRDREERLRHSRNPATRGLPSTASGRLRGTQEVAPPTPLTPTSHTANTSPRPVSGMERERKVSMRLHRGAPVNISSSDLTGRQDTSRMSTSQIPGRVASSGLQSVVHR
T13 sequence (Q14012 whole entry): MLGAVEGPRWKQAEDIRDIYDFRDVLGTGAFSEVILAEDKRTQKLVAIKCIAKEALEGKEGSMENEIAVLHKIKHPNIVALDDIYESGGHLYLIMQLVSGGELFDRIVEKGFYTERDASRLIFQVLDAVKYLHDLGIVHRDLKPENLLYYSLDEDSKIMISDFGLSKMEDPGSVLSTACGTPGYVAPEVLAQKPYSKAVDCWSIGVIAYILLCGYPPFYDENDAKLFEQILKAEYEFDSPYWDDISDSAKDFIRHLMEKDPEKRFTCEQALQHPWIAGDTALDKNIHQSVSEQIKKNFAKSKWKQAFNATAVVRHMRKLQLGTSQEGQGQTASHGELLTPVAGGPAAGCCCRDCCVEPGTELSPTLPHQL

Take `N#Cc1c[nH]c2nc(N)nc(-c3ccc(S(N)(=O)=O)cc3)c12` [Compound 48, 4-(2-Amino-5-cyano-7H-pyrrolo[2,3-d]pyrimidin-4-yl)benzenesulfonamide]: in test [1], the “inhibition of TNFα-stimulated p65 (Ser536) phosphorylation” value is “inhibited; also recorded: small effect”. Moreover, the “inhibition of TNFα-stimulated IκBα degradation” value in test [2] is given as “inhibited; also recorded: small effect”. Also, the remaining activity at 10 µM on CaMKIV(h) was 37%; on TrkB(h), 31%; at c-RAF(h) it was 37%; at PDGFRβ(h), 104%; on ZAP-70(h), 138%; at JAK2(h) it was 29%. For the same compound, the remaining activity at 10 µM on EGFR(h) stood at 108%; on CK1δ(h), 4%; at CHK2(h), 17%; at PKD2(h) it was 26%; at PRK2(h), 31%; on DAPK1(h), 99%. The remaining activity at 10 µM at CaMKI(h) worked out at 12%; on PKCα(h), 41%; on LIMK1(h), 30%. Also, the half-maximal inhibitory concentration (IC50) came to 5.8 µM in test [3] and 8.8 µM in [3] (Homo sapiens, U2OS). Moreover, in test [4], the “effect on NF-κB transcriptional activity” value was “abolished transcriptional activity”. In addition, the “% stim” value in test [4] (Il-1β+DMSO = 100%) is on record as −40.9 ± 4.6%.
